US20130079309A1, “Method Of Treating Acute Lung Injury Using Sphingosine 1 Phosphate Analogs Or Sphingosine 1 Phosphate Receptor Agonists” (The Board of Trustees of the University of Illinois, priority 2010, published 2013)

Assays:
[1] = tested on: radiation-induced lung injury (RILI) in C57BL/6 mice; assay: Murine model of RILI: BAL protein, BAL cell counts, BAL cytokines, EBD extravasation, body weight, lung histology; type: in vivo, mouse; conditions: for lung histology: inflammatory cell infiltration and interstitial edema induced by radiation: 0.1 mg/kg i.p. 2×/wk, 25 Gy; for lung histology: inflammatory cell infiltration and interstitial edema induced by radiation / BAL cell counts vs RILI-challenged controls / BAL protein vs RILI-challenged controls: 6 weeks; for BAL cell counts vs RILI-challenged controls / BAL protein vs RILI-challenged controls: 0.01 or 0.1 mg/kg i.p. 2×/wk from 1 wk before irradiation (20 Gy); for BAL cell counts vs RILI controls / BAL protein levels vs RILI controls: 3 times/wk from 1 wk before irradiation (20 Gy) up to 6 wks; for BAL cell counts vs RILI controls / BAL protein levels vs RILI controls / body weight loss after irradiation: simvastatin 10 mg/kg; for body weight loss after irradiation: analogs 0.1 mg/kg i.p., 3 times/wk from 1 wk before irradiation up to 6 wks
Procedure: Eight to 10-week-old C57BL/6J mice (Jackson Labs, Bar Harbor, Me.) were used for all studies in accordance with the University of Chicago Institutional Animal Care & Use Committee guidelines.
At the termination of each experiment, animals were euthanized by exsanguination under anesthesia in accordance with institutional guidelines. Both lungs were lavaged with 1.0 mL of Hank's buffered saline solution with the fluid allowed to equilibrate for 10 s before withdrawing. The pulmonary vasculature was perfused clear via the pulmonary artery with sterile phosphate-buffered saline (PBS). Both lungs were excised, weighed, and snap-frozen in liquid nitrogen for subsequent analysis. The BAL fluid collected was centrifuged at 500×g for 20 min at 4° C., and the supernatant was removed and recentrifuged at 12,000×g before snap-freezing. Cell pellets were resuspended in 0.5 mL of red blood cell lysis buffer (ACK Lysing Buffer; BioSource International, Camarillo, Calif.) for 20 min and then repelleted by centrifugation at 2500 rpm for 20 min at 4° C. The supernatant was decanted, and the cell pellet was resuspended in 0.2 mL of PBS for cellular analysis using a standard hemacytometer technique. A total of 300 BAL cells per slide were counted for cell differentials using a Diff-Quick-stained kit (Baxter Diagnostics, McGaw Park, Ill.). BAL protein concentrations were determined by a colorimetric BCA assay. Albumin concentrations in the BAL at 1:1000 and 1:100 dilutions, respectively, were quantitated by ELISA (Bethyl Labs, Montgomery, Tex.). To measure cytokines and chemokines, the BAL fluid was assayed with a Bioplex mouse cytokine kit (Bio-Rad, Hercules, Calif.) in accordance with the manufacturer's instructions.
All other chemicals were analytical or cell-culture grade and were obtained from various commercial sources. Evans Blue dye conjugated to albumin (EBA) was prepared by dissolving EBD to a concentration of 0.5% (5 mg/mL or 5.2 mM) in phosphate-buffered saline (PBS) (Ca^2+-Mg^2+ free; Invitrogen Corporation, Carlsbad, Calif.). To this solution, BSA was added to a final concentration of 4% (40 mg/mL or 0.6 mM), mixed well by stirring with a magnetic bar, allowed to stand for 30 min, and then sterile-filtered through a 0.22-μm syringe filter. The conjugate was stored in small aliquots at −80° C. To prevent cross-contamination, each aliquot was used only once in one animal and then discarded. 4, 6, 8, or 12 weeks after irradiation, the animals were injected with EBA via the jugular vein. At the end of exposure, the pulmonary circulation was flushed and lungs were harvested. Formamide extracts of lungs were prepared, with the initial modification that the homogenates were centrifuged at 12,000×g. Centrifugation at this relative centrifugal force (RCF) produced a compact pellet that allowed accurate measurement of the recovered volumes. Accurate estimation of such volumes is critical for calculating the final tissue dilution factor. Lungs, kidneys, and hearts from mice that were not injected with EBA were similarly extracted, to calculate the tissue-specific correction factors. […] Linear regression equations between absorbance at 740 nm (X) and 620 nm (Y) in tissue extracts of animals untreated with EBA were considered to be the tissue-specific correction factors. […] The EB concentration read in mg/mL was converted to μg/g wet weight of lungs using the dilution factor of the original homogenate as described above.
Eight to 10-week-old C57BL/6J mice (Jackson Labs, Bar Harbor, Me.) were used for all studies in accordance with the University of Chicago Institutional Animal Care & Use Committee guidelines. […] (FIG. 4A). Bronchoalveolar lavage (BAL) was performed as described above. BAL protein concentrations were determined by a colorimetric BCA assay. Albumin concentrations in the BAL at 1:1000 and 1:100 dilutions, respectively, were quantitated by ELISA (Bethyl Labs, Montgomery, Tex.).

[2] = tested on: lung vascular leakage in RILI mice; assay: ViSen FMT lung imaging of intravascular probe extravasation in RILI mice; type: in vivo, mouse; conditions: 0.1 mg/kg, 25 Gy, 6 weeks
Procedure: Lung imaging studies were also performed with assessment of RILI-induced extravasation of an intravascular probe.
To assess microvascular changes associated with RILI in real-time, mice were imaged with ViSen FMT 1500 Quantitative Tomography In Vivo Imaging System. Intergisens^750 NIR (ViSen Medicals, Bedford, Mass.) was used as a probe, which targets the vasculature as a selective non-peptide small molecule integrin αvβ3 antagonist and a near-infrared fluorochrome. Mice were injected with probe ([…], IV) at 6 weeks post radiation and imaged 24 hrs later. Probe intensity was quantified using TrueQuant 3D software (VisSen Medicals).

[3] = tested on: HPAEC; assay: Transendothelial electrical resistance (TER) of HPAEC; type: cell-based, human; conditions: for maximal TER change: 10 μM
Procedure: Cells were grown at 37° C. in a 5% CO2 incubator, and passages 6 to 9 were used for experiments. Media were changed 1 day before experimentation.

[4] = tested on: β-arrestin; conditions: 1 μM (SEW2871 10 μM; (S)-FTY720-phosphonate 1, 10, 50 μM), 5 h
Procedure: After another 2 h-incubation with fluorescence substrate, the fluorescence intensity (blue and green channels) were detected and the blue/green emission ratio was used as the activation indicator.

[5] = tested on: LPS-induced lung injury in C57BL/6 mice; assay: LPS-induced murine lung injury model; conditions: for capillary leak as total BAL protein, relative to PBS control: 1S 0.1-5.0 mg/kg i.p. single dose 1 h after LPS 2.5 mg/kg i.t., FTY720 0.5 mg/kg, S1P 0.026 mg/kg; for peripheral blood leukocyte and lymphocyte levels relative to PBS controls: 18 h after LPS
Procedure: For experiments performed in intact animals, male C57BL/6 mice (8-10 weeks) were anesthetized with intraperitoneal ketamine and acetylpromazine mixture according to the approved protocol. Escherichia coli LPS solution (2.5 mg/kg) or sterile saline was instilled intratracheally via a 20-gauge catheter. Simultaneously, mice received either FTY720 or analogs (in doses: 0.01, 0.1, 0.5, 1, and 5 mg/kg i.p.) or PBS as vehicle. The animals were allowed to recover for 18 h. BAL and lungs were collected and stored at −70° C. for evaluation of lung injury.
Pure BAL fluids prepared for protein measurement or myeloperoxidase activity (MPO) lung homogenates were used to test albumin concentration. The assay was performed in 96-well plastic plates (Nalge Nunc A/S, Roskilde, Denmark). Plates were coated with mouse albumin (Bethyl Lab, Montgomery, Tex.), washed, and blocked. Aliquots (100-μl) of the sample or standard and 100 μl of goat anti-mouse albumin antibody (horseradish peroxidase-conjugated) (1:50,000) were then added, followed by incubation at 37° C. for 1 h. Finally, the substrate 3,3′,5,5′-tetramethylbenzidine was added for 10 min, and the reaction stopped by adding 100 μl of 2 M H2SO4. The absorbance at 450 nm was read on a kinetic microplate reader (Molecular Devices).
Myeloperoxidase (MPO) was isolated and measured from snap-frozen right lungs as follows (see also Remick et al., 1990, Am J Pathol 136: 49-60). The right lung was homogenized in 1 ml of 50 mM potassium phosphate, pH 6.0, with 0.5% hexadecyltrimethylammonium bromide. The resulting homogenate was sonicated and then centrifuged at 12,000 g for 15 min. The supernatant was mixed 1:30 with assay buffer (100 mM potassium phosphate, pH 6.0, 0.005% H2O2, 0.168 mg/ml o-dianisidine hydrochloride), and absorbance read at 490 nm. MPO units were calculated as the change in absorbance with respect to time.
Peripheral blood was examined by the Missouri University Research Animal Diagnostic Laboratory (Columbia, Mo.) for determination of total blood cell counts and differentials in blood samples.
Values are shown as the mean±S.E. Data were analyzed using a standard Student's t test or one-way analysis of variance, groups were compared by Newman-Keuls test, and significance in all cases was defined at p<0.05.

[6] = tested on: bleomycin-induced ALI in C57/BL6 mice; assay: Murine model of bleomycin-induced ALI; conditions: for animals alive by day 12 following bleomycin instillation: bleomycin 1.2 U/kg i.t.; for mice survived to 14 days: bleomycin + compound
Procedure: C57/BL6 mice received bleomycin (1.2 U/kg) or sterile saline administered i.t. (intratracheally) and were then treated with FTY720, (S)-FTY720-phosphonate, (0.1 mg/kg i.p.) or PBS vehicle 3× a week until harvesting. Mice were followed for 14 days to assess mortality rates and multiple indices of lung injury.

[7] = biological target: T1, S1P receptor 1 (S1PR1) (Homo sapiens, UniProt P21453); assay: Ubiquitination of S1PR1 in HPAEC (immunoprecipitation, ubiquitin Ab); conditions: for ubiquitination of S1PR1 at 2 h: 1 μM (SEW2871 10 μM); for ubiquitination of S1PR1 at 1 h: 1 μM
Description: S1PR1 was immunoprecipitated by S1PR1Ab, and ubiquitination of S1PR1 was detected by ubiquitin Ab.

[8] = biological target: T1, S1P receptor 1 (S1PR1); assay: S1PR1 protein expression in HPAEC by Western blot; type: cell-based; design: Cells were collected and S1PR1 expression level was detected by Western blot; endogenous in cells; host or cells: HPAEC (human pulmonary artery endothelial cells); conditions: for S1PR1 expression level compared to control: 1 μM (SEW2871 10 μM), 4 h
Description: Cells were collected and S1PR1 expression level was detected by Western blot.

T1 sequence (P21453 whole entry): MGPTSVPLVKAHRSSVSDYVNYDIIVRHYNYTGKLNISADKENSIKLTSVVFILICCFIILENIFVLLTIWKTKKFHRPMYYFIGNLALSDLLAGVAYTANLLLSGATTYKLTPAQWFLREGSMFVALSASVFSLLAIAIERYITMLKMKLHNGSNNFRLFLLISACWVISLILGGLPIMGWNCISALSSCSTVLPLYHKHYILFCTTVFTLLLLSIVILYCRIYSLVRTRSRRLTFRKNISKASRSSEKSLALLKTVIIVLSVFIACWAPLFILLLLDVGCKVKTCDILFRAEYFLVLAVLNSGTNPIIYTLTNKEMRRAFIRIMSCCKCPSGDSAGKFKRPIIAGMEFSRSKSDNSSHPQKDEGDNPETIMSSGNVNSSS

| SMILES | lung histology: inflammatory cell infiltration and interstitial edema induced by radiation [1] | BAL cell counts vs RILI-challenged controls [1] | BAL protein vs RILI-challenged controls [1] | BAL cell counts vs RILI controls [1] | BAL protein levels vs RILI controls [1] | body weight loss after irradiation [1] | radiation-induced probe extravasation (probe intensity), FMT imaging [2] | maximal TER change ([3]; within 60 min) | activation of β-arrestin (blue/green emission ratio) [4] | capillary leak as total BAL protein, relative to PBS control ([5]; 18 h) | peripheral blood leukocyte and lymphocyte levels relative to PBS controls [5] | animals alive by day 12 following bleomycin instillation ([6]; 0.1 mg/kg i.p. 3× a week) [%] | mice survived to 14 days [6] | ubiquitination of S1PR1 at 2 h [7] | ubiquitination of S1PR1 at 1 h [7] | S1PR1 expression level compared to control [8] [%] | further results |
| --- | --- | --- | --- | --- | --- | --- | --- | --- | --- | --- | --- | --- | --- | --- | --- | --- | --- |
| CCCCCCCCc1ccc(CC[C@@](N)(CO)CCP(=O)(O)O)cc1 [1S, (S)-3-amino-3-(hydroxymethyl)-5-(4-octylphenyl)pentylphosphonic acid] | markedly attenuated | significant decreases | significant decreases | significant decreases | significant decreases | did not lose weight | significant decreases | even greater maximal TER elevation | only slightly activated | significantly reduced capillary leak | does not further alter peripheral blood leukocyte and lymphocyte levels | 83 | 5 out of 6 | does not induce ubiquitination | only slight ubiquitination | 87.6 | maximal percentage TER change compared with S1P and FTY720 ([3]; 1 μM, within 60 min): greater maximal percentage TER change; BAL WBC accumulation ([5]; i.p. 1 h after LPS, 18 h): significantly reduced; LPS-induced albumin leakage into BAL ([5]; i.p. 1 h after LPS, 18 h): significantly reduced; LPS-induced albumin leakage into lung tissue ([5]; i.p. 1 h after LPS, 18 h): significantly reduced; lung tissue MPO activity ([5]; i.p. 1 h after LPS, 18 h): significantly reduced; hematologic toxicity ([5]; mouse, in vivo): without apparent hematologic toxicity; comparison with 1R, 2R, 2S in the LPS model ([5]; preliminary studies, data not shown): superior to the other barrier-promoting analogs; BAL protein after 14 days, compared to FTY720 ([6]; 0.1 mg/kg i.p. 3× a week): Decreased BAL protein; S1PR1 expression, agonist without MG132 ([8]; 1 μM, 4 h (FIG. 18)): 89.5%; S1PR1 expression, agonist after MG132 pretreatment ([8]; MG132 10 μM 2 h, then 1 μM agonist 4 h): 99.2% |
| CCCCCCCCc1ccc(CCC(N)(CO)CO)cc1 [FTY720, 2-amino-2-[2-(4-octylphenyl)ethyl]propane-1,3-diol] | to a lesser extent | did not confer significant protection | did not confer significant protection | did not confer significant protection | did not confer significant protection | did not show any beneficial effect | no evidence of protection | somewhat barrier-disruptive | strongly activated | reduction in permeability by 1S was comparable to that achieved by S1P or FTY720 | does not suppress circulating WBC levels | 17 | 1 out of the 6 | significant ubiquitination | only slight ubiquitination | 35.0 | TER response (tracing) ([3]; 1 μM): delayed onset of barrier enhancement |
